In ChEMBL document CHEMBL1158253, “Isolation and structure of hemibastadinols 1-3 from the Papua New Guinea marine sponge Ianthella basta” (1996):
Active and inactive are the calls of the source. No cut-off for these calls is given here.

Legend:
Candida albicans = assay: Antimicrobial activity against Candida albicans ATCC 90028 up to 100 ug/disk after 42 hrs by disk susceptibility test; type: functional, organism-based
Staphylococcus aureus = assay: Antimicrobial activity against Staphylococcus aureus ATCC 29213 after 16 hrs by disk susceptibility test; type: functional
Cryptococcus neoformans = assay: Antimicrobial activity against Cryptococcus neoformans ATCC 90112 up to 100 ug/disk after 42 hrs by disk susceptibility test; type: functional, organism-based
Neisseria gonorrhoeae = assay: Antimicrobial activity against Neisseria gonorrhoeae ATCC 49226 after 16 hrs by disk susceptibility test; type: functional
Enterococcus faecalis = assay: Antimicrobial activity against Enterococcus faecalis ATCC 29212 after 16 hrs by disk susceptibility test; type: functional
Escherichia coli = assay: Antimicrobial activity against Escherichia coli ATCC 25922 up to 100 ug/disk after 16 hrs by disk susceptibility test; type: functional, organism-based

Row | Structure (SMILES) | MIC (Staphylococcus aureus) [µg] | MIC (Neisseria gonorrhoeae) [µg] | MIC (Enterococcus faecalis) [µg] | Activity (Candida albicans) | Activity (Cryptococcus neoformans) | Activity (Escherichia coli)
1 | O=C1NCCc2cc(Br)c(O)c(c2)Oc2c(Br)cc(cc2Br)CCNC(=O)/C(=N/O)Cc2cc(Br)c(O)c(c2)Oc2c(Br)cc(cc2Br)C/C1=N\O [BASTADIN 6] | 6.25 |  | 12.5 | inactive | inactive | 
2 | COc1ccc(C/C(=N/O)C(=O)NCCc2ccc(O)c(Br)c2)cc1Br | 6.25 | 6.25 |  | inactive | inactive | 
3 | NC(=O)C(=O)NCCc1ccc(O)c(Br)c1 |  | 10 |  | inactive | inactive | 
4 | O=C(NCCc1ccc(O)c(Br)c1)/C(Cc1ccc(Oc2cc(C/C(=N/O)C(=O)NCCc3ccc(O)c(Br)c3)cc(Br)c2O)c(Br)c1)=N\O [BASTADIN1] | 6.25 | 50 | 12.5 | inactive | inactive | inactive
5 | O=C1NCCc2cc(Br)c(O)c(c2)Oc2ccc(cc2Br)CCNC(=O)/C(=N\O)Cc2cc(Br)c(O)c(c2)Oc2c(Br)cc(cc2Br)C/C1=N/O [BASTADIN 5] | 12.5 | 50 | 50 | inactive | inactive | 

Further lines, with some results ahead:

Row | MIC (Staphylococcus aureus) [µg] | MIC (Neisseria gonorrhoeae) [µg] | MIC (Enterococcus faecalis) [µg] | Structure (SMILES) | Activity (Candida albicans) | Activity (Cryptococcus neoformans) | Activity (Escherichia coli)
6 | 12.5 | 12.5 | 50 | O=C1N/C=C/c2ccc(c(Br)c2)Oc2cc(cc(Br)c2O)CCNC(=O)/C(=N/O)Cc2cc(Br)c(c(Br)c2)Oc2cc(cc(Br)c2O)C/C1=N\O [BASTADIN 4] | inactive | inactive | 
7 | 6.25 | 50 | 50 | O=C(NCCc1ccc(O)c(Br)c1)/C(Cc1cc(Br)c(O)c(Oc2c(Br)cc(C/C(=N\O)C(=O)NCCc3ccc(O)c(Br)c3)cc2Br)c1)=N\O [BASTADIN 2] | inactive | inactive | 
8 | 1.56 | 12.5 | 50 | O=C(NCCc1ccc(O)c(Br)c1)/C(Cc1ccc(O)c(Br)c1)=N\O [HEMIBASTADIN 1] | inactive | inactive | 
9 |  | 50 | 50 | O=C(NCCc1ccc(O)c(Br)c1)[C@@H](O)Cc1ccc(O)c(Br)c1 [HEMIBASTADINOL 1] | inactive | inactive | 
10 | 3.12 | 3.12 |  | O=C(NCCc1ccc(O)c(Br)c1)/C(Cc1cc(Br)c(O)c(Br)c1)=N\O [HEMIBASTADIN 2] | inactive | inactive | 
11 | 1.56 | 0.78 | 3.12 | O=C(NCCc1ccc(O)c(Br)c1)/C(Cc1cc(Br)c(O)c(-c2cc(C/C(=N/O)C(=O)NCCc3ccc(O)c(Br)c3)cc(Br)c2O)c1)=N\O [BASTADIN 3] | inactive | inactive | 
